The source of these data is PubChem BioAssay AID272 (DTP/NCI, 2004).

The subject of this assay is Lewis lung carcinoma i.m., BDF1 mice, T/C %. As to the kind of experiment: NCI In Vivo Anticancer Drug Screen. Data for tumor model Lewis Lung Carcinoma (intramuscular) in B6D2F1 (BDF1) mice. A digest of the protocol: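 Mice carrying transplantable tumours received test compound. Survival or tumour size was recorded and expressed as the treated-group value (T) divided by the vehicle-treated control-group value (C).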

[1] abbreviates: endpoint: mean tumor weight, dose: 6.25 mg/kg/injection, schedule: Q01DX011 (ip), vehicle: saline, higher = larger tumour.
Setting [2] is: endpoint: median survival time, dose: 6.25 mg/kg/injection, schedule: Q01DX011 (ip), vehicle: saline, higher = longer survival.

Where “and” joins values, the source holds several entries; their conditions need not be identical. Equal entries are not always repeated. Inconclusive results are not listed.

With `CC[C@]1(O)C[C@H]2CN(CCc3c([nH]c4ccccc34)[C@@](C(=O)OC)(c3cc4c(cc3OC)N(C=O)[C@H]3[C@@](O)(C(=O)OC)[C@H](OC(C)=O)[C@]5(CC)C=CCN6CC[C@]43[C@@H]65)C2)C1`, the T/C by setting is: (endpoint: mean tumor weight (est.), dose: 0.05 mg/kg/injection, schedule: Q01DX009 (ip), vehicle: water, higher = larger tumour) 57 % of control; (endpoint: mean tumor weight (est.), dose: 0.08 mg/kg/injection, schedule: Q01DX009 (ip), vehicle: water, higher = larger tumour) 99 % of control; (endpoint: mean tumor weight (est.), dose: 0.14 mg/kg/injection, schedule: Q01DX009 (ip), vehicle: water, higher = larger tumour) 69 % of control; (endpoint: mean tumor weight (est.), dose: 0.23 mg/kg/injection, schedule: Q01DX009 (ip), vehicle: water, higher = larger tumour) 55 % of control; (endpoint: mean tumor weight, dose: 0.12 mg/kg/injection, schedule: Q01DX011 (ip), vehicle: water, higher = larger tumour) 116 % of control; (endpoint: mean tumor weight, dose: 0.14 mg/kg/injection, schedule: Q01DX009 (ip), vehicle: water, higher = larger tumour) 46 % of control. Also, the T/C was 49 % of control (endpoint: mean tumor weight, dose: 0.23 mg/kg/injection, schedule: Q01DX009 (ip), vehicle: water, higher = larger tumour); 105 % of control (endpoint: mean tumor weight, dose: 0.25 mg/kg/injection, schedule: Q01DX011 (ip), vehicle: water, higher = larger tumour); 107 % of control (endpoint: median survival time, dose: 0.05 mg/kg/injection, schedule: Q01DX004 (ip), vehicle: water, higher = longer survival); 92 % of control (endpoint: median survival time, dose: 0.05 mg/kg/injection, schedule: Q09DX009 (ip), vehicle: water, higher = longer survival); 102 % of control and 104 % of control (endpoint: median survival time, dose: 0.06 mg/kg/injection, schedule: Q01DX011 (ip), vehicle: water, higher = longer survival); 110 % of control (endpoint: median survival time, dose: 0.08 mg/kg/injection, schedule: Q01DX004 (ip), vehicle: water, higher = longer survival). The T/C is, setting by setting: (endpoint: median survival time, dose: 0.08 mg/kg/injection, schedule: Q09DX009 (ip), vehicle: water, higher = longer survival) 113 % of control; (endpoint: median survival time, dose: 0.12 mg/kg/injection, schedule: Q01DX011 (ip), vehicle: water, higher = longer survival) 92 % of control and 123 % of control; (endpoint: median survival time, dose: 0.14 mg/kg/injection, schedule: Q01DX004 (ip), vehicle: water, higher = longer survival) 98 % of control; (endpoint: median survival time, dose: 0.14 mg/kg/injection, schedule: Q01DX009 (ip), vehicle: none, higher = longer survival) 158 % of control; (endpoint: median survival time, dose: 0.23 mg/kg/injection, schedule: Q01DX004 (ip), vehicle: water, higher = longer survival) 81 % of control; (endpoint: median survival time, dose: 0.23 mg/kg/injection, schedule: Q01DX009 (ip), vehicle: none, higher = longer survival) 121 % of control. Besides, the T/C by setting is: (endpoint: median survival time, dose: 0.23 mg/kg/injection, schedule: Q01DX009 (ip), vehicle: water, higher = longer survival) 123 % of control; (endpoint: median survival time, dose: 0.25 mg/kg/injection, schedule: Q01DX011 (ip), vehicle: water, higher = longer survival) 105 % of control; (endpoint: median survival time, dose: 0.39 mg/kg/injection, schedule: Q01DX004 (ip), vehicle: water, higher = longer survival) 56 % of control; (endpoint: median survival time, dose: 0.39 mg/kg/injection, schedule: Q01DX009 (ip), vehicle: none, higher = longer survival) 50 % of control; (endpoint: median survival time, dose: 0.39 mg/kg/injection, schedule: Q09DX009 (ip), vehicle: water, higher = longer survival) 58 % of control; (endpoint: median survival time, dose: 0.65 mg/kg/injection, schedule: Q01DX009 (ip), vehicle: none, higher = longer survival) 36 % of control.
Consider `NC(C=O)C(O)C(O)C(O)CO` (stereo not drawn), for which the T/C (endpoint: mean tumor weight (est.), dose: 750.0 mg/kg/injection, schedule: Q01DX011 (ip), vehicle: saline, higher = larger tumour) is 77 % of control; the T/C (endpoint: mean tumor weight (est.), dose: 1500.0 mg/kg/injection, schedule: Q01DX011 (ip), vehicle: saline, higher = larger tumour) was 93 % of control; the T/C (endpoint: mean tumor weight (est.), dose: 3000.0 mg/kg/injection, schedule: Q01DX011 (ip), vehicle: saline, higher = larger tumour) is 89 % of control; the T/C (endpoint: median survival time, dose: 1500.0 mg/kg/injection, schedule: Q01DX011 (ip), vehicle: saline, higher = longer survival) is 104 % of control; the T/C (endpoint: median survival time, dose: 3000.0 mg/kg/injection, schedule: Q01DX011 (ip), vehicle: saline, higher = longer survival) is 104 % of control.
Consider `CSc1nc(N)cc(NC(=O)CCl)n1`, for which the T/C (endpoint: mean tumor weight (est.), dose: 25.0 mg/kg/injection, schedule: Q01DX011 (ip), vehicle: saline, higher = larger tumour) is 92 % of control; the T/C (endpoint: mean tumor weight (est.), dose: 50.0 mg/kg/injection, schedule: Q01DX011 (ip), vehicle: saline, higher = larger tumour) was 69 % of control; the T/C (endpoint: mean tumor weight (est.), dose: 100.0 mg/kg/injection, schedule: Q01DX011 (ip), vehicle: saline, higher = larger tumour) was 35 % of control.
Consider `FC(F)(F)c1ccc(-c2ccc(OCCN3CCCC3)cc2)cc1`, for which the T/C is 57 % of control (endpoint: mean tumor weight, dose: 3.13 mg/kg/injection, schedule: Q01DX011 (ip), vehicle: saline, higher = larger tumour); 62 % of control under setting [1]; 104 % of control (endpoint: median survival time, dose: 3.13 mg/kg/injection, schedule: Q01DX011 (ip), vehicle: saline, higher = longer survival); 100 % of control under setting [2].
As for `CCCCCCCCCCCCCC[n+]1ccccc1`, the T/C (endpoint: mean tumor weight (est.), dose: 0.06 mg/kg/injection, schedule: Q01DX011 (ip), vehicle: saline, higher = larger tumour) is 82 % of control; the T/C (endpoint: mean tumor weight (est.), dose: 0.07 mg/kg/injection, schedule: Q01DX011 (ip), vehicle: saline, higher = larger tumour) is 46 % of control; the T/C (endpoint: mean tumor weight (est.), dose: 0.12 mg/kg/injection, schedule: Q01DX011 (ip), vehicle: saline, higher = larger tumour) was 80 % of control; the T/C (endpoint: mean tumor weight (est.), dose: 0.13 mg/kg/injection, schedule: Q01DX011 (ip), vehicle: saline, higher = larger tumour) is 42 % of control; the T/C (endpoint: mean tumor weight (est.), dose: 0.5 mg/kg/injection, schedule: Q01DX011 (ip), vehicle: saline, higher = larger tumour) was 84 % of control; the T/C (endpoint: median survival time, dose: 0.06 mg/kg/injection, schedule: Q01DX011 (ip), vehicle: saline, higher = longer survival) was 100 % of control. Moreover, the T/C is, setting by setting: (endpoint: median survival time, dose: 0.07 mg/kg/injection, schedule: Q01DX011 (ip), vehicle: saline, higher = longer survival) 93 % of control; (endpoint: median survival time, dose: 0.12 mg/kg/injection, schedule: Q01DX011 (ip), vehicle: saline, higher = longer survival) 100 % of control; (endpoint: median survival time, dose: 0.13 mg/kg/injection, schedule: Q01DX011 (ip), vehicle: saline, higher = longer survival) 100 % of control; (endpoint: median survival time, dose: 0.25 mg/kg/injection, schedule: Q01DX011 (ip), vehicle: saline, higher = longer survival) 91 % of control and 94 % of control; (endpoint: median survival time, dose: 0.5 mg/kg/injection, schedule: Q01DX011 (ip), vehicle: saline, higher = longer survival) 100 % of control.
Regarding `Cc1cc2nc(CBr)c(CBr)nc2cc1C`, the T/C is, setting by setting: (endpoint: mean tumor weight (est.), dose: 0.75 mg/kg/injection, schedule: Q01DX011 (ip), vehicle: saline with Tween-80, higher = larger tumour) 87 % of control; (endpoint: mean tumor weight (est.), dose: 1.5 mg/kg/injection, schedule: Q01DX011 (ip), vehicle: saline with Tween-80, higher = larger tumour) 76 % of control; (endpoint: mean tumor weight (est.), dose: 3.0 mg/kg/injection, schedule: Q01DX011 (ip), vehicle: saline with Tween-80, higher = larger tumour) 67 % of control; (endpoint: mean tumor weight (est.), dose: 6.0 mg/kg/injection, schedule: Q01DX011 (ip), vehicle: saline with Tween-80, higher = larger tumour) 48 % of control; (endpoint: median survival time, dose: 0.75 mg/kg/injection, schedule: Q01DX011 (ip), vehicle: saline with Tween-80, higher = longer survival) 100 % of control; (endpoint: median survival time, dose: 1.5 mg/kg/injection, schedule: Q01DX011 (ip), vehicle: saline with Tween-80, higher = longer survival) 101 % of control. In addition, the T/C (endpoint: median survival time, dose: 3.0 mg/kg/injection, schedule: Q01DX011 (ip), vehicle: saline with Tween-80, higher = longer survival) is 86 % of control and the T/C (endpoint: median survival time, dose: 6.0 mg/kg/injection, schedule: Q01DX011 (ip), vehicle: saline with Tween-80, higher = longer survival) is 107 % of control.
Turning to `CC1OC(=O)C(C2OC2C)=CC1O` (stereo not drawn), the T/C under setting [1] is 93 % of control; the T/C (endpoint: mean tumor weight, dose: 12.5 mg/kg/injection, schedule: Q01DX011 (ip), vehicle: saline, higher = larger tumour) was 99 % of control; the T/C (endpoint: mean tumor weight, dose: 25.0 mg/kg/injection, schedule: Q01DX011 (ip), vehicle: saline, higher = larger tumour) is 78 % of control; the T/C under setting [2] was 102 % of control; the T/C (endpoint: median survival time, dose: 12.5 mg/kg/injection, schedule: Q01DX011 (ip), vehicle: saline, higher = longer survival) is 109 % of control; the T/C (endpoint: median survival time, dose: 25.0 mg/kg/injection, schedule: Q01DX011 (ip), vehicle: saline, higher = longer survival) was 107 % of control.
`COC(=O)Nc1nc2ccc(C(=O)c3cccs3)cc2[nH]1`: the T/C runs as follows: (endpoint: median survival time, dose: 35.0 mg/kg/injection, schedule: Q03DX008 (ip), vehicle: other, higher = longer survival) 101 % of control; (endpoint: median survival time, dose: 70.0 mg/kg/injection, schedule: Q03DX008 (ip), vehicle: other, higher = longer survival) 86 % of control.
